Results reported in US5214045A, “Amino acid containing acrylamide derivatives for ulcer prevention or treatment” (Richter Gedeon Vegyeszeti Gyar RT, priority 1989, dated 1993).

Key:
gastric acid secretion = experiment: Assay of the inhibition of gastric acid secretion by using pylorus ligature; type: in vivo; conditions: female Wistar rats, 4 hours
Description: 2) Assay of the inhibition of gastric acid secretion by using pylorus ligature
[Shay et al., Gastroenterology, 5, 43-61 (1945)]
Before ligating the pylorus, the test compounds suspended with Tween were given orally at a volume of 0.5 ml per […] of body weight to female Wistar rats fasted previously for 20 hours. The animals were sacrificed 4 hours after the operation, and the amount of the acid in the stomach was measured by titration with 0.01N sodium hydroxide solution in the presence of phenolphthalein indicator. The pH value of the content of the stomach was measured by using a pH-meter (Radelkis, Type OP-211/1).

[1] = test system: gastric injuries induced by acidic alcohol; experiment: Assay of gastric injuries induced by acidic alcohol; type: in vivo; conditions: female rats; for ED50: Rattus norvegicus, po, pretreatment 30 min, length of haemorrhagic lesions
Description: 1) Assay of gastric injuries induced by acidic alcohol
Female rats weighing about 120 to 150 g fasted for 24 hours were used in this test. Test compounds suspended with Tween 80 were given orally to the animals through an intragastric tube. After a certain period (pretreatmenttime) acidic alcohol was given through the intragastric tube at a dose or 0.5 ml per 100 g of body weight. The animals were sacrificed after 1 hour, their stomachs were removed and incised along the great curve. The length of the reddish-brown strips (haemorrhagic lesions) was measured and the mean total length per stomach was calculated. The biological activity of the test compounds was given and compared to that of the control group. the results are shown in Tables 1 and 2 below.

Structure (SMILES)	% Inhibition in the amount of the acid at a dose of 25 mg/kg p.o. (pretreatment: 30 min) (gastric acid secretion) [%]	ED50 [1] [mg/kg]	% Inhibition at a dose of 10 mg/kg p.o. (pretreatment: 30 min) [1] [%]
NC(=O)[C@@H]1CCCN1C(=O)/C=C/S(=O)(=O)c1ccccc1 [G, 1-[3-Phenylsulfonyl-2(E)-propenoyl]-2(S)-carbamoylpyrrolidine]	30	4.5	–
CCOC(=O)[C@H](C)NC(=O)/C=C/S(=O)(=O)c1ccccc1 [I, Ethyl N-[3-phenylsulfonyl-2(E)-propenoyl]-(S)alanate]	20	2.2	–
CCOC(=O)C[C@@H](NC(=O)/C=C/Sc1ccccc1)C(=O)OCC [E, Diethyl N-[3-phenylthio-2(E)-propenoyl]-(R)-aspartate]	20	–	20
CCOC(=O)C[C@@H](NC(=O)/C=C/[S+]([O-])c1ccccc1)C(=O)OCC (stereo partly drawn) [A, Diethyl N-[3-phenylsulfinyl-2(E)-propenoyl]-(R)-aspartate]	30	2.1	–
CCOC(=O)C[C@H](NC(=O)/C=C/Sc1ccccc1)C(=O)OCC [F, Diethyl N-[3-phenylthio-2(E)-propenoyl]-(S)-aspartate]	20	–	20
O=C(/C=C/S(=O)(=O)c1ccccc1)N1CCN(c2ccccc2)CC1 [C, 1-[3-Phenylsulfonyl-2(E)-propenoyl]-4-phenyl-piperazine]	20	–	–
CCOC(=O)C[C@@H](NC(=O)/C=C/S(=O)(=O)c1ccccc1)C(=O)OCC [B, Diethyl N-[3-phenylsulfonyl-2(E)-propenoyl]-(R)-aspartate]	–	3.5	–
COC(=O)[C@H](CCSC)NC(=O)/C=C/S(=O)(=O)c1ccccc1 [D, Methyl 2(S)-[3-phenylsulfonyl-2(E)-propenoylamino]-4-methylthiobutyrate]	–	3.5	–
CCOC(=O)CNC(=O)/C=C/S(=O)(=O)c1ccccc1 [H, Ethyl N-[3-phenylsulfonyl-2(E)-propenoyl]glycinate]	30	1.6	–
COC(=O)[C@@H]1CSCN1C(=O)/C=C\Sc1ccccc1 [J, Methyl N-[3-phenylthio-2(Z)-propenoyl]-(R)-thiazolidine-4-carboxylate]	–	–	20
O=C(O)C[C@@H](NC(=O)/C=C/S(=O)(=O)c1ccccc1)C(=O)O [K, Magnesium N-[3-phenylsulfonyl-2(E)-propenoyl]-(R)aspartate.4H2 O]	30	–	–
